Test results published in patent US10493398B2, “Cyclic amine for selectively removing hydrogen sulphide” (BASF SE, priority 2015, dated 2019).
Read-outs that look alike come from different tables or passages of the source.

Assay: pKA values by half-equivalence method
Type: physicochemical
Conditions: for pKa: amine in water, half neutralized with hydrochloric acid; for pKa decrease from 20 °C to 120 °C (pKa at 20 °C − pKa at 120 °C): difference between 20° C. and 120° C.
Method: The pKA values are suitably measured in aqueous solution with an amine concentration of 0.01 to 0.05 mol/kg at the specified temperature by determining the pH at the half-equivalence point, as shown, for example, by the working examples.
The pKA values of various amines were determined by means of the half-equivalence method. For this purpose, the amines were dissolved in water with a concentration of […] and partly neutralized with half the molar amount of hydrochloric acid (0.005 to 0.025 mol/L). The mass of the amine solutions was 250 g. […] The measurements were conducted at 20 and 120° C. The pH electrode used was the “Hamilton Polylite Plus 120” model, which is calibrated with pH 7 and pH 12 buffer solutions. The measurement was effected in a thermostated closed jacketed vessel with nitrogen blanketing.

[1] = 20° C., read-out: pKA at 20° C.
[2] = 120° C., read-out: pKA at 120° C.

Structure (SMILES)	pKa [1]	pKa [2]	pKa decrease from 20 °C to 120 °C (pKa at 20 °C − pKa at 120 °C)
CC1(C)CC(O)CC(C)(C)N1 [TAAol, 4-hydroxy-2,2,6,6-tetramethylpiperidine]	10.2	7.6	2.6
CN(C)C1CC(C)(C)NC(C)(C)C1 [DATP, 4-dimethylamino-2,2,6,6-tetramethylpiperidine]	10.7	8.1	2.6
